# Test results from patent publication US20250213593A1, “Use of Derivatives based on Sarsasapogenin Structure and Pharmaceutical Compositions thereof” (BEIJING PHYTOVENT PHARMACEUTICAL TECHNOLOGY CO., LTD., priority 2022, published 2025).
# “Also recorded” adds a separate entry of the source.
# Tests used:
# [1] = physchem; details: organic solvent or mixture
# [2] = tested on: transgenic neutrophil fluorescent zebrafishes; test: Maximum tolerated concentration (MTC) in LPS-induced inflammation zebrafish; format: in vivo; details: for Death count / Death rate (%): n = 30; for If precipitation occurred?: fish-farming water
# From the text: Transgenic neutrophil fluorescent zebrafishes were matched and propagated naturally in pairs. The age was 3 days after fertilization (3 dpf), and there was a total of 810 zebrafishes, with 30 zebrafishes per experimental group. The purposes were to determine maximum tolerated concentrations (MTC) of “Embodiment 5” and “Embodiment 6” in an LPS-induced inflammation experiment, and evaluate anti-inflammatory effects of “Embodiment 5” and “Embodiment 6” on LPS-induced inflammations.
# (§1) LPS was used to treat normal 3 dpf transgenic neutrophil fluorescent zebrafishes in a yolk sac injection, and a zebrafish inflammation model was established.
# Transgenic neutrophil fluorescent zebrafishes (3 dpf), well developed and consistent in stage on 3 days after fertilization, were picked under a microscope and placed in a six-well plate, with 30 zebrafishes being randomly picked for each well at a capacity of 3 mL in each well. A zebrafish inflammation model was established by administrating LPS in a yolk sac injection. “Embodiment 5” and “Embodiment 6” were respectively dissolved with water, wherein the concentrations were 0.625 μM, 1.25 μM, 2.5 μM, 5 μM, 10 μM, 50 μM, 100 μM and 200 μM, respectively. Meanwhile, anormal control group (i.e., zebrafishes were treated with fish-farming water) and a model control group were set, and cultured in a 28° C. incubator for 3 h, and the death of zebrafishes was then observed and recorded. The number of dead zebrafishes in each experimental group was counted, and the maximum tolerated concentrations (MTCs) of zebrafishes in “Embodiment 5” and “Embodiment 6” were determined.
# [3] = tested on: transgenic neutrophil fluorescent zebrafishes; test: Anti-inflammatory effect on LPS-induced inflammatory zebrafish; format: in vivo
# Experimental: as §1
# Transgenic neutrophil fluorescent zebrafishes (3 dpf), well developed and consistent in stage on 3 days after fertilization, were picked under a microscope and placed in a six-well plate, with 30 zebrafishes being randomly picked for each well at a capacity of 3 mL in each well. A zebrafish inflammation model was established by administrating LPS in a yolk sac injection. “Embodiment 5” and “Embodiment 6” were respectively dissolved with water, wherein the concentrations were 0.28 μM, 0.83 μM and 2.5 μM, respectively. The concentration of indomethacin was 80 μM. Meanwhile, a normal control group (i.e., zebrafishes were treated with fish-farming water) and a model control group were set, and incubated in a 28° C. incubator for 3 h. 10 zebrafishes were randomly selected from each group, and observed and photographed under a fluorescence microscope, and the photos were saved. Nikon NIS-Elements D 3.10 advanced image processing software was used for image analysis, the number (N) of inflammatory neutrophils in zebrafish was calculated, and the statistical processing results were expressed as mean±SE. The statistical analysis results of the number of inflammatory neutrophils in zebrafish were used to evaluate whether “Embodiment 5” and “Embodiment 6” had significant anti-inflammatory effects on LPS-induced inflammatory zebrafish, respectively. A formula for calculating the anti-inflammatory effects of “Embodiment 5” and “Embodiment 6” was as follows: […]
# [4] = tested on: transgenic AD mice (C57BL/6J background); test: Nesting behaviors of AD mice; format: in vivo, mouse; details: administered from 2 months of age; tested 3 and 6 months after administration
# From the text: One symptom of AD patients was the inability to take care of themselves, while nesting behaviors reflected the self-care level of the mice. At the beginning of the experiment, 10 pieces of rectangular paper were placed neatly in mouse cages in order. Normal mice would tear up pieces of paper and build nests, while mice with severe AD symptoms would not tear up pieces of paper and build nests.
# [5] = tested on: transgenic AD mice (C57BL/6J background); test: Water maze test of AD mice; details: 6 months after administration
# From the text: • Experimental and analytical method: in this experiment, transgenic mice from APP/P Embodiment 13B were used, and background mice were C57BL/6J. […] The process of the water maze test was divided into three stages: the first stage lasted for 1 day; and in order to adapt to this stage, there was an escape platform having a diameter of 8 cm in a large pool having a diameter of 1.2 m, and there were four marks of circle, triangle, box and fork in four directions of east, west, north and south on the pool wall as hints of spatial positions. The rats were sequentially placed into transparent water along the pool wall, with the water surface 1 cm below the escape platform. The mice would easily find the escape platform, and was then rescued from the water maze after climbing onto the platform, thereby learning basic rules of the water maze. The second stage lasted for 4 days and was a training stage. The settings for the tool remained unchanged, the water surface was raised to 1 cm above the escape platform, and ink was poured to strain the water black, so that the escape platform was not visible. Every day, the mice were put into the pool from the four directions of the east, south, west and north, and rescued after successfully climbing onto the escape platform. […]
# [6] = tested on: transgenic AD mice (C57BL/6J background); test: Light/dark box test of AD mice; format: in vivo, mouse; details: 6 months after administration
# From the text: The principle of the light/dark box test is: the mice have a natural tendency to darkness; and after the mice was put into a light box, the mice would spontaneously enter a connected dark box. However, in this experiment, the dark box was equipped with an electrical stimulation mechanism, and the mice would be shocked when they entered the dark box.
# [7] = tested on: Mia paca-2 cells; test: In-vitro killing of pancreatic cancer cells (CellTiter-Glo); format: cell-based; details: 11 small molecules, max 10 uM, 3-fold dilution
# Experimental: • Experimental and analytical method: we used Mia paca-2 cells as a research object. This cell line was a pancreatic cancer cell line and was widely used in an antimicrobial susceptibility experiment. We performed the antimicrobial susceptibility experiment on 11 small molecules, with a maximum concentration of 10 uM and a 3-fold dilution, resulting in a concentration gradient of seven points. Cell viability assay was performed using CellTiter-Glo, and a dosage-response curve was plotted using GraphPad Prism. A resulting antimicrobial susceptibility curve was shown in the figure below. • Results: the antimicrobial susceptibility curve was shown in FIG. 53, where a lower IC50 value indicates a higher sensitivity to the small molecule.
# [8] = tested on: SMPs (submitochondrial particles); test: Catalytic activity of SMPs (NADH dehydrogenation); format: biochemical; details: Rotenone 2 μM, 10 min, 500 μM NADH
# Experimental: Experiment 9. Detection of Small Molecule Compounds that Facilitated the Catalytic Activity of SMPs (Submitochondrial Particles) • Experimental and analytical method: HEK293 cells were cultured at 5% CO2, and purified to obtain mitocondria, which were sonicated to obtain SMPs (submitochondrial granules). SMPs were incubated with different concentrations of small molecule compounds or a control drug (Rotenone, 2 μM) for 10 min, and then added with 500 μM of NADH. The absorbance of NADH was detected by an Enspire multi-mode microplate reader, an enzyme activity curve with the decrease of NADH concentration catalyzed by SMPs was plotted, and a maximum reaction rate of SMPs was calculated by linear fitting. The addition of 1 mM FeCN to a normal NADH catalytic system of SMPs could cause an electronic pathway from NADH to coenzyme Q to be short-circuited.
# [9] = concentration 0.625 (table head μg/mL; text μM)
# [10] = concentration 0.625 (table head μg/mL; text μM), 3 h
# [11] = concentration 1.25 (table head μg/mL; text μM)
# [12] = concentration 1.25 (table head μg/mL; text μM), 3 h
# [13] = concentration 2.5 (table head μg/mL; text μM)
# [14] = concentration 2.5 (table head μg/mL; text μM), 3 h
# [15] = concentration 5 (table head μg/mL; text μM), 3 h
# [16] = concentration 10 (table head μg/mL; text μM), 3 h
# [17] = concentration 50 (table head μg/mL; text μM), 3 h
# [18] = concentration 100 (table head μg/mL; text μM), 3 h
# [19] = concentration 200 (table head μg/mL; text μM), 3 h
compound,measurement,setting,value
C[C@H]1CC[C@@]2(OC1)O[C@H]1C[C@H]3[C@@H]4CC[C@@H]5CC(NC(=O)CC(=O)N6CCN(C)CC6)CC[C@]5(C)[C@H]4CC[C@]3(C)[C@H]1[C@@H]2C (stereo partly drawn) [Embodiment 5],solubility,[1],20 mM
same,Toxicity,[2]; [9],No obvious toxicity
same,Death count,[2]; [10],0
same,Death rate (%),[2]; [10],0%
same,If precipitation occurred?,[2]; [9],No
same,Toxicity,[2]; [11],No obvious toxicity
same,Death count,[2]; [12],0
same,Death rate (%),[2]; [12],0%
same,If precipitation occurred?,[2]; [11],No
same,Toxicity,[2]; [13],normal state; also recorded: No obvious toxicity
same,Death count,[2]; [14],0
same,Death rate (%),[2]; [14],0%
same,If precipitation occurred?,[2]; [13],not precipitated and No
same,Death count,[2]; [15],3
same,Death rate (%),[2]; [15],10%
same,If precipitation occurred?,[2]; concentration 5 (table head μg/mL; text μM),No
same,Death count,[2]; [16],30
same,Death rate (%),[2]; [16],100%
same,If precipitation occurred?,[2]; concentration 10 (table head μg/mL; text μM),No
same,Death count,[2]; [17],30
same,Death rate (%),[2]; [17],100%
same,If precipitation occurred?,[2]; concentration 50 (table head μg/mL; text μM),No
same,Death count,[2]; [18],30
same,Death rate (%),[2]; [18],100%
same,If precipitation occurred?,[2]; concentration 100 (table head μg/mL; text μM),No
same,Death count,[2]; [19],30
same,Death rate (%),[2]; [19],100%
same,If precipitation occurred?,[2]; concentration 200 (table head μg/mL; text μM),No
same,maximum tolerated concentration (MTC),"[2]; in the evaluation of the anti-inflammatory effect, LPS zebrafish, 3 h",2.5 µM
same,Inflammation resolution (%) / anti-inflammatory effect,[3]; 0.28 μM,33%
same,Inflammation resolution (%) / anti-inflammatory effect,[3]; 0.83 μM,61%
same,Inflammation resolution (%) / anti-inflammatory effect,[3]; 2.5 μM,67%
same,anti-inflammatory effects on inflammatory zebrafish (in words),"[3]; 0.28 to 2.5 μM, P<0.001 vs model control",obvious anti-inflammatory effects
CCN1CCN(C2CCN(C(=O)CC(=O)NC3CC[C@]4(C)C5CC[C@]6(C)[C@@H]7[C@H](C[C@H]6[C@@H]5CC[C@@H]4C3)O[C@]3(CC[C@H](C)CO3)[C@H]7C)CC2)CC1 (stereo partly drawn) [Embodiment 25],nesting behavior score,[4],most obvious
same,dwell time in a target quadrant,[5],most obvious
same,number of platform shuttles,[5],most obvious
same,memory on electric shock (latency before entering the dark box),[6],could effectively enhance the memory
C[C@H]1CC[C@@]2(OC1)O[C@H]1C[C@H]3[C@@H]4CC[C@@H]5C[C@@H](NC(=O)CC(=O)N6CCN(C7CCN(C)CC7)CC6)CC[C@]5(C)C4CC[C@]3(C)[C@H]1[C@@H]2C (stereo partly drawn) [Embodiment 26A],sensitivity of Mia paca-2 cells (IC50 comparison),[7],highest sensitivity
C=C(C)[C@H]1Cc2c(ccc3c2O[C@@H]2COc4cc(OC)c(OC)cc4[C@@H]2C3=O)O1 [Rotenone],dehydrogenation reaction of NADH by SMPs,[8],completely blocked
